Source: patent US7833698B2, “Method for determining the response to cancer therapy” (Ventana Medical Systems, Inc., priority 2000, dated 2010)

Key:
Format in all cases: cell-based, human
MCF7 cells [1] = test: p53 and p21CIPI/WAF1 immunostaining with image analysis in MCF7 cells; settings: MCF7 treated for 3 days with doxorubicin
Description: The expression of proteins associated with senescence or apoptosis are quantitated by image analysis using a suitable primary antibody (such as Ab-2 for p53, or Ab-1 for WAF1, HSP60, or caspase 3), secondary antibody (such as rabbit anti-mouse IgG), and tertiary ABC complex.
Tertiary ABC complexes are visualized by treating the sections with diaminobenizidine (DAB) stain under appropriate conditions. In a second step, the tissue is counterstained with another optical enhancement factor, preferably ethyl green. The resulting preparation has green nuclei with varying degrees of brown diaminobenzidine (DAB) precipitate localized to the nuclei (and indicating the level of expression of p53, p21, p16, WAF1, HSP60, or caspase-3 protein). […] Spectral studies have shown that the ethyl green stain offers good spectral separation from the DAB precipitate of the immunoperoxidase technique such that different features of the image can be readily separated by filtering at two different wavelengths. […]
MCF7 cells were treated for 3 days with doxorubicin and then stained for p53 and p21^CIPI/WAF1 expression. Cells were cultured, stained, and analyzed as described above for SA-β-Gal using appropriate antibodies.

MCF7 cells [2] = test: SA-β-Gal staining of drug-treated MCF7 cells; settings: treated 2-3 days with 50 nM doxorubicin or Taxol, stained 10-11 days after release from the drug
Method: Cells were washed in PBS, fixed for 3-5 minutes at room temperature in 2% formaldehyde and 0.2% glutaraldehyde (or in 3% formaldehyde alone), washed, and incubated at 37° C. in fresh senescence-associated β-Gal (SA-β-Gal) staining solution (1 mg/ml 5-bromo-4-chloro-3-indolyl β-D-galactoside (X-Gal), 20 mg/ml dimethylformamide; 40 mM citric acid/sodium phosphate, pH 6.0; 5 mM potassium ferrocyanide; 5 mM potassium ferricyanide; 150 mM NaCl; 2 mM MgCl2. Staining was evident following 2-4 hours of incubation and maximal staining was reached after in 12-16 hours. To detect lysosomal β-Gal, the staining solution was prepared with citric acid/sodium phosphate at pH 4.0 (Baselga et al., 1999, Proceedings of AACR NCI EORTC International Conference, Abstract 98).
Red and green filters are suitable for practice of the invention. For SA-β-Gal, a green filter (500 nm) is used to determine the total cytoplasmic area stained with red eosin and compared with the blue area stained for SA-β-Gal (600 nm) as determined using a red filter. […] It is recognized that there are various other staining or optical enhancement methods and filtering methods which can be used to optically enhance one particular area or feature over another cell feature (such as Fast green and eosin).
Cellular changes are induced by treatment with moderate doses of doxorubicin and Taxol in breast tumor-derived human cell lines. […]

MCF7 cells [3] = test: Flow cytometric analysis of drug-treated MCF7 cells; settings: 50 nM, 2-3 days
Method: Cellular changes are induced by treatment with moderate doses of doxorubicin and Taxol in breast tumor-derived human cell lines. MCF7 cells were treated for 2-3 days with 50 nM doxorubicin or Taxol (doses that induce growth inhibition and cellular death as measured by flow cytometry; as described by, e.g., Dolbeare et al., 1983, Proc. Natl. Acad. Sci. U.S.A. 80:5573-77) and then were stained for SA-β-Gal expression 10-11 days after release from the drug.

| Compound | Cells stained for p21CIPI/WAF1 (% Cells) (MCF7 cells [1]) | Cells stained for p53 (% Cells) (MCF7 cells [1]) | Percentage of Cells Expressing SA-β-Gal (MCF7 cells [2]) | Cellular outcome in flow cytometry histogram / SA-β-Gal+ morphology (MCF7 cells [3]) |
| --- | --- | --- | --- | --- |
| COc1cccc2c1C(=O)c1c(O)c3c(c(O)c1C2=O)C[C@@](O)(C(=O)CO)C[C@@H]3O[C@H]1C[C@H](N)[C@H](O)[C@H](C)O1 [Doxorubicin, doxorubicin] | 50.81 ± 6 % Cells | 23.93 ± 7 % Cells | 24% | resulted in senescence and blocks at G1, G2, and G2M |
| CC(=O)O[C@H]1C(=O)[C@@]2(C)[C@H]([C@H](OC(=O)c3ccccc3)[C@]3(O)C[C@H](OC(=O)[C@H](O)[C@@H](NC(=O)c4ccccc4)c4ccccc4)C(C)=C1C3(C)C)[C@]1(OC(C)=O)CO[C@@H]1C[C@@H]2O [Taxol] | – | – | 13% | apoptosis is evident by the hypodiploid peak |
